{
  "source": "patent US20040110781A1",
  "about": "(priority 2002, published 2004)",
  "origin": "cited, not measured here",
  "test_system": "excitory opioid receptors on sensory neurons",
  "data": [
    {"smiles": "C[C@@H](NC(=O)[C@@H](N)Cc1ccc(O)cc1)C(=O)NCC(=O)N[C@@H](Cc1ccccc1)C(=O)NNC(=O)[C@H](Cc1ccccc1)NC(=O)CNC(=O)[C@@H](C)NC(=O)[C@@H](N)Cc1ccc(O)cc1", "note": "[biphalin]", "values": [
      {"measurement": "action on excitory opioid receptor functions", "result": "selective antagonists of excitory opioid receptors functions"}
    ]}
  ]
}
